Converted amounts (≈) assume the structure as drawn.
Legend:
[1] = Solid-state stability of crystalline Form II on standing; format: physicochemical; settings: after 1 month standing at 60° C.
Protocol: The amlodipine free base can be of any form including crystalline form I, crystalline form II or amorphous. […] This form corresponds to the material described by […] and Deasy. […] Although it is possible to convert Form II into Form I by applying sufficiently high temperatures, generally over 100 C., Form II is generally stable at ambient conditions and even at moderately elevated temperatures. For instance, the Form II is stable after 1 month standing at 60° C. Accordingly, Form II is thus useful in manufacturing of pharmaceutical final forms. The amlodipine free base in the tablet of the present invention can be of a single type or can be a mixture. For example, a mixture of crystalline Forms I and II.

[2] = Stickiness comparison (average punch residue of tablets); format: physicochemical; settings: tablets with microcrystalline cellulose and calcium sulphate dihydrate, 20 mm punch, 400 mg tablet, slope over runs of 50-300 tablets
Protocol: An amlodpine free base tablet according to the present invention is preferably a low punch residue tablet. A “low punch residue” as used herein means that the average amount of amlodipine left on a tablet punch is not more than 1 μg/cm^2 per tablet based on a 20 mm round flat punch with a compression force of 15 kilo-newtons. Preferably, the tablet has an average punch residue of 0.7 μg/cm^2 per tablet, more preferably 0.6 μg/cm^2 per tablet. The amount of amlodipine residue can be measured by the process described in EP 244 944. In general the method involves washing the punch after runs of 50, 100, 150, 200, 250 and 300 tablets, using methanol and an ultrasonic bath. The amount of amlodipine in the samples is measured by uv and the total amount of amlodipine extracted from both the upper and lower punch is plotted against the amount of tablets made. An average value for amlodipine residue (stickiness) is calculated from the slope of the regression line by forcing the y-intercept of the line through zero.
After 50 tablets, the tablet material was extracted from the punches using methanol and an ultrasonic bath. […] The extracts together with Amlodipine calibration samples were measured spectrometrically. […] An average value for stickiness was calculated from the slope of the regression line by forcing the y-intercept of the line through zero.

[3] = solid amlodipine free base; Int. J. of Pharmaceutics 133, 71-83 (1996); cited from earlier work

Structure (SMILES): CCOC(=O)C1=C(COCCN)NC(C)=C(C(=O)OC)C1c1ccccc1Cl (stereo not shown) [Form II]
- stability of crystalline form [1]: stable

Structure (SMILES): CCOC(=O)C1=C(COCCN)NC(C)=C(C(=O)OC)C1c1ccccc1Cl (stereo not shown) [amlodipine besylate]
- Average residue (stickiness) [2]: 1.16 μg ADP.cm^−2.tablet^−1

Structure (SMILES): CCOC(=O)C1=C(COCCN)NC(C)=C(C(=O)OC)C1c1ccccc1Cl (stereo not shown) [amlodipine free base, 2-[(2-aminoethoxy)methyl]-4-(2-chlorophenyl)-3-ethoxycarbonyl-5-methoxycarbonyl-6-methyl-1,4-dihydropyridine]
- Average residue (stickiness) ([2]; listed as Amlodipine base): 0.55 μg ADP.cm^−2.tablet^−1
- aqueous solubility [3]: 77.4 µg/mL (≈ 189 µM)

Source: patent publication US7335380B2 (Synthon IP Inc., priority 2000, dated 2008)
